One test concerns the target T1, p66/p51 HIV-1 RT (Human immunodeficiency virus type 1 group M subtype B, UniProt P04585).
T1 construct: The 1:1 ration between the p66/p51 subunits was also verified; made in house; host or cells: E. coli M15
The test is described as follows: Thermal stability by differential scanning fluorimetry. The format is binding. Conditions: increasing concentrations of inhibitor. On the procedure: Thermal stability assays were performed according to Nettleship et al.. […] The mixture was heated from 30 to 90°C in increments of 0.2°C. Fluorescence intensity was measured using excitation and emission wavelengths of 483 and 568 nm, respectively. Changes in protein thermal stability (ΔTm) upon inhibitor binding were analyzed by using the LightCycler 480 software. All assays were performed in triplicate.

For test [1], the target named is HIV-1 RT-associated RDDP activity, HIV-1 group O RT (Human immunodeficiency virus type 1 group O, UniProt Q79666). Nature of the test: RDDP activity assay, HIV-1 group O RT. The format is biochemical. Conditions: read-out: IC50 RDDP. The source says:
Recombinant HIV-1 group O RT was expressed and purified as previously described. It was obtained as a heterodimer composed of subunits of 66 and 51 kDa, with a polyhistidine tag at the C-terminus of p66. For this purpose, the RT p66 subunit encoded within a p66RTB expression vector was co-expressed with the HIV-1 protease in E. coli XL-1 Blue, and the obtained heterodimers were then purified by ionic exchange followed by chromatography on Ni2+-nitriloacetic acid agarose. The enzyme was quantified by active site titration before biochemical studies.
RNA-dependent DNA polymerase (RDDP) activity was measured as described in 25 μL volume containing 60 mM Tris-HCl buffer pH 8.1, 8 mM MgCl2, 60 mM KCl, 13 mM DTT, 2.5 μM poly(A)-oligo(dT), 100 μM dTTP, increasing concentrations of inhibitors, whose dilution were made in water, and different amounts of enzymes according to a linear range of dose-response curve: 6 ng wt RT; 30 ng K103N RT; 12 ng V106ART; 19 ng V108A RT; 1.51.5 ng Y181C RT; 45 ng Y188A RT; 15 ng Y188L RT; 30 ng E224A RT; 15 ng P225A RT; 18 ng P226A RT; 23 ng F227A RT; 15 ng L228A RT; 30 ng W229A RT; 30 ng M230A RT; 15 ng G231A RT; 15 ng N474A RT; 15 ng Y501A RT; 15 ng A502F RT; 19 ng A508V RT; 38 ng HIV-1 group O RT. After enzyme addition, the reaction mixture was incubated for 30 min at 37°C and the stopped by addition of EDTA. […]

By IC50 is commonly meant the concentration that inhibits the measured activity by half.

Consider `Cc1sc2nc(-c3ccc(O)c(O)c3)[nH]c(=O)c2c1C` [VU, 2-(3,4-dihydroxyphenyl)-5,6-dimethylthieno[2,3-d]pyrimidin-4(3H)-one], for which, at p66/p51 HIV-1 RT, the “Tm decrease of HIV-1 RT” value was 0.5−5.5 °C.

With `O=C1Nc2ccc(Cl)cc2[C@@](C#CC2CC2)(C(F)(F)F)O1` [EFV, Efavirenz, reference compound], the IC50 in test [1] amounted to 212 ± 46 nM.

(Values after article PMC4723341, “Ribonuclease H/DNA Polymerase HIV-1 Reverse Transcriptase Dual Inhibitor: Mechanistic Studies on the Allosteric Mode of Action of Isatin-Based Compound RMNC6” (PLoS ONE, 2016).)
